Assay results published in patent EP3362444B1, “COMPOUNDS” (Exonate Limited, priority 2015, dated 2017).

Columns and labels:
[1] = molecular target: T1, SRPK1 (Homo sapiens, UniProt Q96SB4); assay: Differential scanning fluorimetry (DSF); format: binding; details: higher ΔTm indicates higher affinity
T1 construct: 0.1 µg of purified SRPK1 kinase
Procedure: Differential Scanning Fluorimetry was performed as described in Federov et al (2011). […]

[2] = molecular target: T1, SRPK1; assay: In vitro kinase assay (Kinase-Glo), SRPK1 inhibition; format: biochemical; details: for IC50: SRPK1 inhibition assay, 1 µM ATP, SRSF1 RS peptide, 30°C 10 minutes; for potency against SRPK1 relative to analogous compounds in which R3 is a pyridyl ring: by kinase assay or differential scanning fluorimetry, Figures 1 and 2
Procedure: Candidate compounds were tested for SRPK1 inhibition using a Kinase-Glo assay (Promega, Southampton, UK32). […] Candidate compounds were serially diluted from 10 µM to 0.5 nM and added to the reaction mixture, wells with omitted SRPK1 kinase and omitted compounds were also added as controls. All wells contained 1% DMSO (Fisher Scientific, Loughborough, UK). One micromolar ATP was added, wells minus ATP were used as background controls. The plate was then incubated at 30°C for 10 minutes. An equal volume of Kinase-Glo (25 µL; Promega) was added to each well and the plate read for luminescence using a Fluostar Optima (BMG Labtech) .

T1 sequence (Q96SB4 whole entry): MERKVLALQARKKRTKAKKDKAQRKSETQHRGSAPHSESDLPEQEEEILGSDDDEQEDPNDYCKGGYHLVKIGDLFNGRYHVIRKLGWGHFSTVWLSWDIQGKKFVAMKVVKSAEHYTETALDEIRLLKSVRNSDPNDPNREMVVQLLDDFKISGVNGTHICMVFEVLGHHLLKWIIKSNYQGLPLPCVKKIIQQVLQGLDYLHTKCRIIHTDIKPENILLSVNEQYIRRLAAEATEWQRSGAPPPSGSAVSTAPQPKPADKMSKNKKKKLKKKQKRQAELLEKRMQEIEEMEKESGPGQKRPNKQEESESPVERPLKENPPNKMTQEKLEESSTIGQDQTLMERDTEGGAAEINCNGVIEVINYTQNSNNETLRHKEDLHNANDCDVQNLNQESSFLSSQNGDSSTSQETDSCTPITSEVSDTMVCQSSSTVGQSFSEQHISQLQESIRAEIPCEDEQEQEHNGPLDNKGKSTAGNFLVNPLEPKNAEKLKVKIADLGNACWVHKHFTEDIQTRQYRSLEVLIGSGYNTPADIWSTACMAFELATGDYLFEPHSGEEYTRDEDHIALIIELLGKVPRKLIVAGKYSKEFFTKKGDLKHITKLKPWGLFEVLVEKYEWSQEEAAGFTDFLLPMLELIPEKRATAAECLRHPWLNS

| Structure (SMILES) | DSF (ΔTm/°C) [1] | IC50 [2] | potency against SRPK1 relative to analogous compounds in which R3 is a pyridyl ring [2] |
| --- | --- | --- | --- |
| O=C(Nc1cc(Cl)ccc1N1CCN(Cc2ccco2)CC1)c1ccccn1 [Compound 29, N-(5-chloro-2-(4-(furan-2-ylmethyl)piperazin-1-yl)phenyl)picolinamide] | 11.97 °C |  |  |
| O=C(Nc1cc(C(F)(F)F)ccc1N1CCN(Cc2cc[nH]n2)CC1)c1ccco1 [Compound 9, N-(2-(4-((1H-pyrazol-3-yl)methyl)piperazin-1-yl)-5-(trifluoromethyl)-phenyl)furan-2-carboxamide] | 11.64 °C | 62.4 nM |  |
| Cn1ccc(CN2CCN(c3ccc(C(F)(F)F)cc3NC(=O)c3ccco3)CC2)n1 [Compound 10, N-(2-(4-((1-methyl-1H-pyrazol-3-yl)methyl)piperazin-1-yl)-5-(trifluoromethyl)phenyl)furan-2-carboxamide] | 10.87 °C |  |  |
| O=C(Nc1cc(C(F)(F)F)ccc1N1CCN(Cc2ccco2)CC1)c1ccccn1 [Compound 28, N-(2-(4-(furan-2-ylmethyl)piperazin-1-yl)-5-(trifluoromethyl)phenyl)-picolinamide] | 14.44 °C |  |  |
| O=C(Nc1cc(C(F)(F)F)ccc1N1CCN(Cc2cocn2)CC1)c1ccncn1 [Compound 56, N-(2-(4-(oxazol-4-ylmethyl)piperazin-1-yl)-5-(trifluoro-methyl)phenyl)pyrimidine-4-carboxamide] |  | 134 nM |  |
| O=C(Nc1cc(C(F)(F)F)ccc1N1CCN(Cc2cocn2)CC1)c1ccccc1 [Compound 71, N-(2-(4-(oxazol-4-ylmethyl)piperazin-1-yl)-5-(trifluoromethyl)phenyl) benzamide] |  | 718 nM |  |
| O=C(Nc1cc(C(F)(F)F)ccc1N1CCN(Cc2cocn2)CC1)c1ncco1 [Compound 42, N-(2-(4-(oxazol-4-ylmethyl)piperazin-1-yl)-5-(trifluoro-methyl)phenyl)oxazole-2-carboxamide] |  | 1260 nM |  |
| O=C(Nc1cc(C(F)(F)F)ccc1N1CCN(Cc2cncs2)CC1)c1ccco1 [Compound 13, N-(2-(4-(thiazol-5-ylmethyl)piperazin-1-yl)-5-(trifluoromethyl)-phenyl)furan-2-carboxamide] | 12.99 °C | 39.5 nM |  |
| O=C(Nc1cc(C(F)(F)F)ccc1N1CCN(Cc2cocn2)CC1)c1cnccn1 [Compound 52, N-(2-(4-(oxazol-4-ylmethyl)piperazin-1-yl)-5-(trifluoro-methyl)phenyl)pyrazine-2-carboxamide] |  | 162 nM |  |
| O=C(Nc1cc(C(F)(F)F)ccc1N1CCN(Cc2cocn2)CC1)c1cccc(C2CCOCC2)n1 [Compound 58, N-(2-(4-(oxazol-4-ylmethyl)piperazin-1-yl)-5-(trifluoromethyl)phenyl)-6-(tetrahydro-2H-pyran-4-yl)picolinamide] |  | 104 nM |  |
| O=C(Nc1cc(C(F)(F)F)ccc1N1CCN(Cc2cocn2)CC1)c1ccc(C2CCOCC2)cn1 [Compound 59, N-(2-(4-(oxazol-4-ylmethyl)piperazin-1-yl)-5-(trifluoromethyl)phenyl)-5-(tetrahydro-2H-pyran-4-yl)picolinamide] |  | 974 nM |  |
| Cc1ccc(C(=O)Nc2cc(C(F)(F)F)ccc2N2CCN(Cc3cn(Cc4ccccc4)nn3)CC2)o1 [Compound 7, N-(2-(4-((1-benzyl-1H-1,2,3-triazol-4-yl)methyl)piperazin-1-yl)-5-(trifluoromethyl)phenyl)-5-methylfuran-2-carboxamide] | 8.84 °C | 337 nM |  |
| O=C(Nc1cc(C(F)(F)F)ccc1N1CCN(Cc2cocn2)CC1)c1cocn1 [Compound 57, N-(2-(4-(oxazol-4-ylmethyl)piperazin-1-yl)-5-(trifluoro-methyl)phenyl)oxazole-4-carboxamide] |  | 117 nM |  |
| O=C(Nc1cc(C(F)(F)F)ccc1N1CCN(Cc2cocn2)CC1)c1nc2ccccc2o1 [Compound 55, N-(2-(4-(oxazol-4-ylmethyl)piperazin-1-yl)-5-(trifluoromethyl)phenyl)benzo[d]oxazole-2-carboxamide] |  | 1840 nM |  |
| O=C(Nc1cc(C(F)(F)F)ccc1N1CCN(Cc2cscn2)CC1)c1ccco1 [Compound 11, N-(2-(4-(thiazol-4-ylmethyl)piperazin-1-yl)-5-(trifluoromethyl)-phenyl)furan-2-carboxamide] | 12.94 °C |  |  |
| O=C(Nc1cc(C(F)(F)F)ccc1N1CCN(Cc2cocn2)CC1)c1ccco1 [Compound 39, N-(2-(4-(oxazol-4-ylmethyl)piperazin-1-yl)-5-(trifluoro-methyl)-phenyl)furan-2-carboxamide] |  | 60.7 nM |  |

Continued, values first:

| DSF (ΔTm/°C) [1] | IC50 [2] | potency against SRPK1 relative to analogous compounds in which R3 is a pyridyl ring [2] | Structure (SMILES) |
| --- | --- | --- | --- |
| 18.03 °C | 1.7 nM |  | O=C(Nc1cc(C(F)(F)F)ccc1N1CCN(Cc2cscn2)CC1)c1ccc(C2CCOCC2)o1 [Compound 19, 5-(tetrahydro-2H-pyran-4-yl)-N-(2-(4-(thiazol-4-ylmethyl)piperazin-1-yl)-5-(trifluoromethyl)phenyl)furan-2-carboxamide] |
|  | 32.6 nM |  | Cc1ccc(CN2CCN(c3ccc(C(F)(F)F)cc3NC(=O)c3ccco3)CC2)o1 [Compound 48, N-(2-(4-((5-methylfuran-2-yl)methyl)piperazin-1-yl)-5-(trifluoromethyl)phenyl)furan-2-carboxamide] |
|  | 31.3 nM |  | O=C(Nc1cc(C(F)(F)F)ccc1N1CCN(Cc2c[nH]c3ccccc23)CC1)c1ccccn1 [Compound 38, N-(2-(4-((1H-indol-3-yl)methyl)piperazin-1-yl)-5-(trifluoromethyl)phenyl)picolinamide] |
|  | 5.3 nM |  | O=C(Nc1cc(C(F)(F)F)ccc1N1CCN(Cc2ccoc2)CC1)c1ccccn1 [Compound 72, N-(2-(4-(furan-3-ylmethyl)piperazin-1-yl)-5-(trifluoromethyl)phenyl)picolinamide] |
| 15.95 °C | 17.6 nM | improved potency | Cc1ccc(C(=O)Nc2cc(C(F)(F)F)ccc2N2CCN(Cc3ccco3)CC2)o1 [Compound 8, 5-methyl-N-(2-(4-((furan-2-yl)methyl)piperazin-1-yl)-5-(trifluoromethyl)phenyl)furan-2-carboxamide] |
|  | 6.7 nM |  | O=C(Nc1cc(C(F)(F)F)ccc1N1CCN(Cc2cscn2)CC1)c1ccccn1 [Compound 31, N-(2-(4-(thiazol-4-ylmethyl)piperazin-1-yl)-5-(trifluoromethyl)phenyl)-picolinamide] |
|  | 0.7 nM | improved potency | O=C(Nc1cc(C(F)(F)F)ccc1N1CCN(Cc2ccoc2)CC1)c1ccc(C2CCOCC2)o1 [Compound 43, N-(2-(4-(furan-3-ylmethyl)piperazin-1-yl)-5-(trifluoromethyl)phenyl)-5-(tetrahydro-2H-pyran-4-yl)furan-2-carboxamide] |
|  | 27 nM |  | Cn1ccc(CN2CCN(c3ccc(C(F)(F)F)cc3NC(=O)c3ccccn3)CC2)n1 [Compound 34, N-(2-(4-((1-methyl-1H-pyrazol-3-yl)methyl)piperazin-1-yl)-5-(trifluoromethyl)phenyl)picolinamide] |
|  | 21 nM |  | O=C(Nc1cc(C(F)(F)F)ccc1N1CCN(Cc2cocn2)CC1)c1cc2ccccc2o1 [Compound 51, N-(2-(4-(oxazol-4-ylmethyl)piperazin-1-yl)-5-(trifluoro-methyl)-phenyl)benzofuran-2-carboxamide] |
|  | 2.8 nM |  | O=C(Nc1cc(C(F)(F)F)ccc1N1CCN(Cc2ccno2)CC1)c1ccccn1 [Compound 62, N-(2-(4-(isoxazol-5-ylmethyl)piperazin-1-yl)-5-(trifluoro-methyl)phenyl)picolinamide] |
|  | 0.5 nM |  | O=C(Nc1cc(C(F)(F)F)ccc1N1CCN(Cc2cncs2)CC1)c1ccc(C2CCOCC2)o1 [Compound 70, 5-(tetrahydro-2H-pyran-4-yl)-N-(2-(4-(thiazol-5-ylmethyl)piperazin-1-yl)-5-(trifluoromethyl)phenyl)furan-2-carboxamide] |
|  | 8.8 nM |  | O=C(Nc1cc(C(F)(F)F)ccc1N1CCN(Cc2cnoc2)CC1)c1ccccn1 [Compound 67, N-(2-(4-(isoxazol-4-ylmethyl)piperazin-1-yl)-5-(trifluoro-methyl)phenyl)-picolinamide] |
|  | 3.7 nM |  | Cc1ccc(CN2CCN(c3ccc(C(F)(F)F)cc3NC(=O)c3ccc(C4CCOCC4)o3)CC2)o1 [Compound 44, N-(2-(4-((5-methylfuran-2-yl)methyl)piperazin-1-yl)-5-(trifluoromethyl)phenyl)-5-(tetrahydro-2H-pyran-4-yl)furan-2-carboxamide] |
